Results on 8 molecules are retold here after PMC10633873 (ACS Omega, 2023).

Starred links: 1 amine or outer side, 2 acyl side, 3 side chain; linkers in the order of their positions; H or OH if unused. Positions of bridges follow the written chain, without caps; N, C: chain ends. Non-standard residues stand in square brackets, D forms with d. Residues, ends and D or L forms follow the SMILES beside them. Chains are numbered I, II in the order given. Actinocin(9to1) = Cc1c2oc3c(C)ccc(C(=O)[*:1])c3nc-2c(C(=O)[*:2])c(N)c1=O; NMeV = CN[C@H](C(=O)O)C(C)C; Sar = CNCC(=O)O Bounds are passed on as bounds.

One data set has as its target T1, HEV-RdRp (Hepatitis E virus genotype 1, UniProt P33424).
T1 sequence (P33424 1207-1693 limits assumed): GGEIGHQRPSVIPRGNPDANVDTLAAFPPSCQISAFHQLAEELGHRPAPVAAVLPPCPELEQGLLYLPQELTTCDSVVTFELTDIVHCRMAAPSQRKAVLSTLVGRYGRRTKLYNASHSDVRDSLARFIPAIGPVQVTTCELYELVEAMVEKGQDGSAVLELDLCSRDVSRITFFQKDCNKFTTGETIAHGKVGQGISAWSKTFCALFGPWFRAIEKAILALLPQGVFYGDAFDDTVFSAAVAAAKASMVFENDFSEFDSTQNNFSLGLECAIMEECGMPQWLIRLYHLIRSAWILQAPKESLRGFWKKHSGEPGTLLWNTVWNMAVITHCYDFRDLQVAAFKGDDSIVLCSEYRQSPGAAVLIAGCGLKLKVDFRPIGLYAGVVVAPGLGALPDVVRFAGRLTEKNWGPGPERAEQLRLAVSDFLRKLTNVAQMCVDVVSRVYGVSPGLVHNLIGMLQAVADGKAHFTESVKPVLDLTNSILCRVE
Kind of data set: HEV-RdRp enzyme activity. The data set is classed as biochemical.

Data set [1] can be described thus: Cell viability by MTT assay. The data set is classed as cell-based. As to conditions: human, Huh7 cells. On the technique in general: Tetrazolium dyes change colour on reduction, which living cells bring about.
In data set [2] the test system is HEV. Kind of data set: Immunofluorescence assay of ORF2 expression in HEV RNA-transfected Huh7 cells. The data set is classed as cell-based, Hepatitis E virus. The note with it: Huh7, anti-HEV-ORF2, 4–5 days after transfection.
For data set [3], the system named is HEV. Kind of data set: Effect on viral replication. The note with it: concentration and assay not stated. The data set is classed as cell-based, Hepatitis E virus.
Another data set deals with HEV genotype 3 (pSHEV-3). Kind of data set: Viral RNA copy number by qPCR in Huh7 cells transfected with full-length HEV RNA. The note with it: 5 days post transfection, vs untreated cells. The data set is classed as cell-based, Hepatitis E virus. Background: Real-time PCR tracks product formation cycle by cycle.

On to `Nc1nc2c(ncn2[C@@H]2O[C@H](COP(=O)(O)OP(=O)(O)OP(=O)(O)O)[C@@H](O)[C@H]2O)c(=O)[nH]1` [GTP], for which the Km (usually the concentration of substrate that gives half-maximal velocity) on HEV-RdRp (GTP varied 0 to 8 mM, 5 μM enzyme, poly(C) 1 μg, Michaelis–Menten fit) was 400 µM.

Take `Cc1c2oc3c(C)ccc(C(=O)N[C@@H]4C(=O)N[C@H](C(C)C)C(=O)N5CCC[C@H]5C(=O)N(C)CC(=O)N(C)[C@@H](C(C)C)C(=O)O[C@@H]4C)c3nc-2c(C(=O)N[C@@H]2C(=O)N[C@H](C(C)C)C(=O)N3CCC[C@H]3C(=O)N(C)CC(=O)N(C)[C@@H](C(C)C)C(=O)O[C@@H]2C)c(N)c1=O` [actinomycin-D] (I: T[dV]P[Sar][NMeV] / II: T[dV]P[Sar][NMeV]; ester I:1-I:C, II:1-II:C; linker I:N-II:N via Actinocin(9to1)): the “effect on enzyme activity of RdRp” value at HEV-RdRp (5 μM actinomycin-D added to the reaction mixture) was “no significant effect”.

For `NC(=O)c1nc(F)c[nH]c1=O` [favipiravir], the CC50 – broadly, the concentration that lowers cell viability or growth by half – at 72 h in data set [1] is less than 500 µM. On HEV-RdRp, the IC50 – broadly, the concentration at which inhibition is half-maximal – was determined as 10.2 ± 4.9 µM and the “effect on polymerase activity of HEV-RdRp” value is “reduced the polymerase activity”. In the data set on HEV [2], the “effect on HEV replication (ORF2 mean fluorescence intensity)” value is recorded as “significantly inhibited HEV replication”.

As for `CCc1cc(CC[C@]2(C3CCCC3)CC(O)=C(Cc3nc4nc(C)cc(C)n4n3)C(=O)O2)cc(CC)n1` [filibuvir], on HEV-RdRp, the “effect on polymerase activity of HEV-RdRp” value is “reduced the polymerase activity”.

Regarding `Nc1ccn([C@@H]2CS[C@H](CO)O2)c(=O)n1` [lamivudine], the “effect on in vitro enzyme activity of HEV-RdRp” value on HEV-RdRp (concentration not given) is given as “inhibited”. Besides, the “effect on viral replication” value in the data set on HEV [3] is reported as “did not show any effect”.

For `CCC(CC)COC(=O)[C@H](C)N[P@](=O)(OC[C@H]1O[C@@](C#N)(c2ccc3c(N)ncnn23)[C@H](O)[C@@H]1O)Oc1ccccc1` [remdesivir], the “effect on polymerase activity of HEV-RdRp” value at HEV-RdRp is “did not show any effect”.

As to `NC(=O)c1ncn([C@@H]2O[C@H](CO)[C@@H](O)[C@H]2O)n1` [ribavirin], the CC50 at 72 h in data set [1] was less than 100 µM. For the same molecule, on HEV-RdRp, half-maximal inhibition (IC50) required 3.5 ± 1.6 µM and the “effect on polymerase activity of HEV-RdRp” value is given as “reduced the polymerase activity”. In addition, in the data set on HEV genotype 3 (pSHEV-3) (100 μM), the “% reduction of viral RNA” value was “∼72%”.

In data set [1], `CC(C)OC(=O)[C@H](C)N[P@](=O)(OC[C@H]1O[C@@H](n2ccc(=O)[nH]c2=O)[C@](C)(F)[C@@H]1O)Oc1ccccc1` [sofosbuvir] returned a 50% cytotoxic concentration (CC50) at 72 h of less than 125 µM. Further, at HEV-RdRp, 5.2 ± 2.9 µM corresponded to half-maximal inhibition (IC50) and the “effect on polymerase activity of HEV-RdRp” value is “reduced the polymerase activity”. Also, the “% reduction of viral RNA” value in the data set on HEV genotype 3 (pSHEV-3) (125 μM) is listed as “∼68%”.
